Measurements from US20090012148A1, “REDUCING CELLULAR CHOLESTEROL LEVELS AND/OR TREATING OR PREVENTING PHOSPHOLIPIDOSIS” (priority 2005, published 2009).
“Also recorded” adds a separate entry of the source.

Legend:
[1] = test system: CT60 cells; test: Gas chromatography cholesterol assay; assay type: cell-based, Chinese hamster; details: 10 μM, FC = free cholesterol
Protocol: The cholesterol lowering effect of the 14 hit compounds identified by filipin labeling was measured by an alternative chemical method that involved GC separation of solvent-extracted cellular lipids (43). CT60 cells were treated with compounds at 10 μM under the same conditions as in the screening assays. Since the GC assay estimates FC content per cell, the values are compared to the average filipin intensity assay (Table 1).
CT60 or CT43 cells were plated on day 1 in 6-well plates. Hit compounds were added to the cells at 10 μM concentration. Cells were incubated for 24 h. Cellular lipids were extracted with hexane: iso-propyl alcohol (3:2 v/v). The lipid extracts were dried and re-suspended in hexane followed by separation on gas chromatograph using β-sitosterol as an internal standard.
Procedure: CT60 cells were plated in 6-well plates in Ham's F-12/1.176 g/L sodium bicarbonate/2 g/L glucose/10% FBS. Following 24 h incubation, cells were treated with 10 μM of each compounds, medium being replaced with Ham's F-12/1.176 g/L sodium bicarbonate/2 g/L glucose/5.5% FBS/20 mM HEPES. The change of the medium in the wells was performed to have experimental conditions similar to those used for the screening once chemical compounds were added to the cells. After 18 h treatment with compounds, cells were washed twice with Hank's balanced salt solutions (HBSS). Cellular lipids were extracted with hexane/isopropyl alcohol (3:2 v/v) (43) dried and resuspended in hexane followed by separation on a gas chromatograph (GC) using following conditions. A Hewlett Packard GC model HP 5890 series II (Palo Alto, Calif.) equipped with a flame ionization detector, split-splitless injector, and 15 m×0.53 mm HP-5 capillary column coated with […] film thickness of 5% phenyl methyl siloxane was used to separate free cholesterol. The injection temperature was maintained at 255° C. and oven temperature was held isothermally at 260° C. using helium as a mobile phase at 30 mL/min flow rate. The free cholesterol (FC) was quantified using beta-sitosterol as internal standard to correct for lipid losses during extraction.

[2] = test system: CT60 cells; test: Filipin binding assay, average filipin intensity and staining pattern; assay type: cell-based, Chinese hamster; details: 10 μM; for Average filipin intensity Fraction of control: 14 hit compounds from primary library
Protocol: We developed assays for correction of the NPC phenotype in CHO cell lines using filipin, which binds to non-esterified cholesterol and has been used to visualize the free cholesterol content in NPC cells. The initial screens were carried out in CT60 cells, which express a mutated hamster NPC1 protein and a gain of function mutation in SCAP (42). These cells cannot traffic LDL-derived cholesterol out of late endosomes, and large amounts of cholesterol accumulate in LSO compartments. FIGS. 1A-B show images of filipin staining in a control CHO cell line, TRVb1 (45) (FIG. 1A) and in CT60 cells (FIG. 1B). It can be seen that the CT60 cells show much more filipin staining than control cells and that the fluorescence in CT60 cells is concentrated in peri-nuclear organelles.
For screening, images were acquired using a Discovery-1 automated microscopy system with a 10× objective and corrected for background and shading as described in Methods. Two thresholds were set for filipin staining, a low threshold to include all cell areas, and a high threshold for the strong filipin staining in the peri-nuclear LSOs. The threshold values were set for each plate from analysis of 64 images in 32 wells of untreated CT60 cells. […] In developing the low threshold, we compared the outlines based on the thresholded cell images with transmitted light images, and the thresholds provided good agreement with the transmitted light cell boundaries.
As a simple measure of the intensity of filipin staining, we measured the filipin intensity per pixel above the threshold. The conditions of filipin labeling (time and concentration) were adjusted to optimize the discrimination between the CT60 cells and control TRVb1 cells. […] The quality of the assay for screening is expressed in terms of a statistical parameter Z′(46):
Using the above screening technique, we screened a library of 14,956 compounds added to cells for 16 hours at a final concentration of 10 μM, using a single well for each compound. Prior to application of the compounds, cells were grown in normal tissue culture medium containing 10% FBS, so the LSOs were filled with cholesterol (FIG. 1B). The cells were then imaged and analyzed using the average filipin intensity assay and the LSO compartment assay. In general, the two analyses identified similar compounds that reduced the filipin labeling.
Compound addition: The library compounds were formatted for screening in the Rockefeller University High Throughput Screening Facility. Cells were treated with the compounds from the chemical library one day after plating. We added […] of each compound (5 mM stock in DMSO) to 25 μl of screening Medium S composed of medium A supplemented with 1% FBS and 20 mM 4-(2-hydroxyethyl)-1-pipiperazine ethane sulphonic acid (HEPES) in Falcon 384-well V-bottomed polypropylene plates using a Packard MiniTrak™ robotic liquid handling system. To obtain ˜10 μM final concentration, 23 μl of the premixed compounds were dispensed into the plates containing cells and […] of culture medium A. For primary screening, 352 test compounds were added to each plate, and the remaining 32 wells were used as a control with only DMSO added. All plates were incubated with compounds for 16 h at 37° C. Plates were then washed three times with phosphate buffered saline pH 7.4 (PBS) using a Bio-Tek Elx405 plate washer (Bio-Tek Instruments Inc., Winooski, Vt.). For each wash cycle, […] of PBS was dispensed followed by aspiration with a residual volume of 16 μl per well. Finally, cells were fixed with 1.5% PFA in PBS for 20 min at room temperature, followed by 3 more washes with PBS.
Fluorescence labeling. To the fixed cells, filipin was added at a final concentration of 50 μg/ml in PBS for 45 m at room temperature to label free cholesterol. Cells were finally washed three times with PBS, and images were acquired immediately after labeling. […]

[3] = test system: normal human fibroblasts; test: Filipin LSO ratio assay on U18666A-treated normal human fibroblasts; assay type: cell-based; details: 250 nM or 500 nM, 20 hours
Protocol: FIG. 12 depicts the effect of 7 compounds (2-a-1, 2-a-3, 2-a-8, 2-a-9, 2-a-12, 2-a-13, 2-a-15) from the second library on U18666A-treated normal human fibroblasts. Normal human fibroblasts were plated in 384 well plates and grown in regular growth medium for 24 h, after which the cells were treated with compound U18666A (500 nM or 250 nM) in screening medium for 4 h. The cells were then further incubated overnight with hit compounds (10 μM) in the continued presence of U18666A. Finally, cells were washed three times with PBS, fixed with 1.5% PFA, washed with PBS and stained with filipin. Images were acquired using the Discovery1 microscope at 10× magnification and analyzed for the LSO ratio. Solid horizontal lines are the mean for U18666A-treated cells at each concentration, and the dotted horizontal lines indicate −3 SD.
(§1) Normal human fibroblasts (GM5659E) were grown in MEM with 1% P/S and 10% FBS. For microscopy, fibroblasts were plated in normal growth medium on glass-bottomed 35 mm dishes or in 384-well plates.
Normalized values were obtained by dividing the values in the presence of each compound by the values obtained in presence of solvent control for each plate. Similar methods were used to analyze the effects of compounds on human fibroblasts treated with U18666A to induce cholesterol retention in LSOs. […]

[4] = test system: normal human fibroblasts; test: Filipin staining of normal human fibroblasts; assay type: cell-based; details: data not shown
Protocol: These cells show rearrangements that may indicate that cholesterol has been redirected to a different compartment or that the morphology of the LSOs themselves has been changed (compound 1-c-3, FIG. 4C).
as §1

## O=C1C(=Cc2ccc(-c3ccc(Cl)c(Cl)c3)o2)C=C(c2ccccc2)N1c1ccccc1O [Compound 1-a-6]
[1]
  μg FC/μg Protein by GC Fraction of control: 1.37 ± 0.01 Fraction of control
[2]
  Average filipin intensity Fraction of control: 0.92 ± 0.04 Fraction of control

## O=C1Nc2ccccc2C1=NNc1nc(N2CCCCC2)nc(N2CCCCC2)n1 [Compound 1-a-9]
[1]
  μg FC/μg Protein by GC Fraction of control: 0.86 ± 0.07 Fraction of control
[2]
  Average filipin intensity Fraction of control: 0.99 ± 0.04 Fraction of control

## C=CCN1C(=O)C(=CC=Cc2ccc(N(C)C)cc2)SC1=S [Compound 1-a-2]
[1]
  μg FC/μg Protein by GC Fraction of control: 1.15 ± 0.05 Fraction of control
[2]
  Average filipin intensity Fraction of control: 0.88 ± 0.04 Fraction of control

## CN(C)c1cc(NN=Cc2cccs2)nc(N(C)C)n1 [Compound 1-a-12]
[1]
  μg FC/μg Protein by GC Fraction of control: 0.73 ± 0.03 Fraction of control
[2]
  Average filipin intensity Fraction of control: 0.91 ± 0.04 Fraction of control

## O=C(O)c1ccc(N2C(=O)C(=Cc3ccc(-c4ccc(Br)cc4)o3)C=C2c2ccccc2)cc1 [Compound 1-a-13]
[1]
  μg FC/μg Protein by GC Fraction of control: 1.54 ± 0.11 Fraction of control
[2]
  Average filipin intensity Fraction of control: 0.97 ± 0.04 Fraction of control

## Clc1ccccc1N1N=C(C=Cc2cccs2)CC1c1cccs1 (stereo not shown) [Compound 1-b-2]
[2]
  change in filipin intensity: increase in filipin intensity; also recorded: increased filipin intensity

## CCN(CC)CCO[C@H]1CC[C@@]2(C)C(=CC[C@@H]3[C@@H]2CC[C@]2(C)C(=O)CC[C@@H]32)C1 [Compound U18666A]
[3]
  cholesterol accumulation by filipin staining and LSO compartment ratio: significant increase

## Nc1c(Sc2ccccc2)cc(Sc2ccccc2)c2c1C(=O)c1ccccc1C2=O [Compound 1-a-1]
[1]
  μg FC/μg Protein by GC Fraction of control: 1.02 ± 0.03 Fraction of control
[2]
  Average filipin intensity Fraction of control: 0.87 ± 0.04 Fraction of control

## CCOC(=O)c1sc(NC(=O)c2ccccc2C)nc1-c1ccccc1 [Compound 1-a-11]
[1]
  μg FC/μg Protein by GC Fraction of control: 0.82 ± 0.07 Fraction of control
[2]
  Average filipin intensity Fraction of control: 0.90 ± 0.04 Fraction of control

## CC1=NN(c2ccccc2)C(=O)C1=NNc1ccccc1C(=O)O [Compound 1-c-3]
[2]
  morphological change of the filipin staining pattern: peri-nuclear clusters of LSOs in mutant cells to become more dispersed; also recorded: morphological changes; also recorded: large network of apparently tubular organelles

## O=C1C(=Cc2ccc(-c3ccc(Br)cc3)o2)C=C(c2ccccc2)N1c1ccc(O)cc1 [Compound 1-a-8]
[1]
  μg FC/μg Protein by GC Fraction of control: 1.31 ± 0.10 Fraction of control
[2]
  Average filipin intensity Fraction of control: 0.90 ± 0.04 Fraction of control

## COc1ccccc1NN=C1C(=O)N(c2nc(-c3ccc(Cl)cc3)cs2)N=C1C [Compound 1-a-4]
[1]
  μg FC/μg Protein by GC Fraction of control: 0.87 ± 0.07 Fraction of control
[2]
  Average filipin intensity Fraction of control: 1.01 ± 0.04 Fraction of control

## Cc1cc([N+](=O)[O-])ccc1NC(=O)CC1SC(=Nc2ccccc2)N(c2ccccc2)C1=O (stereo not shown) [Compound 1-a-10]
[1]
  μg FC/μg Protein by GC Fraction of control: 1.23 ± 0.08 Fraction of control
[2]
  Average filipin intensity Fraction of control: 0.96 ± 0.04 Fraction of control

## CCOc1ccc(NN=C2C(=O)N(c3nc(-c4ccccc4)cs3)N=C2c2ccccc2)cc1 [Compound 1-a-3]
[1]
  μg FC/μg Protein by GC Fraction of control: 1.27 ± 0.07 Fraction of control
[2]
  Average filipin intensity Fraction of control: 0.95 ± 0.04 Fraction of control

## CC(C)(C)c1ccc(C(=O)Nc2ccc(-c3nc4ccccc4o3)c(O)c2)cc1 [Compound 1-b-4]
[4]
  effect on filipin staining compared with CT60 cells: similar
[2]
  change in filipin intensity: significant increase; also recorded: increased filipin-intensity; also recorded: increased filipin intensity
  morphological change of the filipin staining pattern: filamentous or tubular staining; also recorded: induced morphological changes; also recorded: bright swirls of filipin staining

## O=C1C(=Cc2ccc(-c3cc(Cl)ccc3Cl)o2)C=C(c2ccccc2)N1c1ccc(O)cc1 [Compound 1-a-7]
[1]
  μg FC/μg Protein by GC Fraction of control: 1.04 ± 0.13 Fraction of control
[2]
  Average filipin intensity Fraction of control: 0.89 ± 0.04 Fraction of control

## O=C1C(=Cc2ccc(-c3ccc(Cl)c(Cl)c3)o2)C=C(c2ccccc2)N1c1ccc(O)cc1 [Compound 1-a-5]
[1]
  μg FC/μg Protein by GC Fraction of control: 1.18 ± 0.06 Fraction of control
[2]
  Average filipin intensity Fraction of control: 0.89 ± 0.04 Fraction of control

## CCN(CC)C(=O)CCN1C(=O)C(=Cc2ccc(F)cc2)SC1=S [Compound 1-c-2]
[2]
  change in filipin intensity: no significant change
  morphological change of the filipin staining pattern: more compact LSOs; also recorded: morphological changes
